Where a name gives a salt, the structure may show the parent alone.
Each molecule was assayed against T1, purified human Factor XIa (Homo sapiens, UniProt P03951) (assay: Factor XIa assay (chromogenic substrate S-2366 hydrolysis, Ki)). Details: not given.
T1 construct: purchased Haematologic Technologies
Format: biochemical
Procedure: The effectiveness of compounds of the present invention as inhibitors of the coagulation factors XIa, VIIa, IXa, Xa, XIIa, plasma kallikrein or thrombin, can be determined using a relevant purified serine protease, respectively, and an appropriate synthetic substrate. The rate of hydrolysis of the chromogenic or fluorogenic substrate by the relevant serine protease was measured both in the absence and presence of compounds of the present invention. […] A decrease in the rate of absorbance or fluorescence change in the presence of inhibitor is indicative of enzyme inhibition. Such methods are known to one skilled in the art. The results of this assay are expressed as the inhibitory constant, Ki.
Values of Ki were determined by allowing the protease to react with the substrate in the presence of the inhibitor. Reactions were allowed to go for periods of 20-180 minutes (depending on the protease) and the velocities (rate of absorbance or fluorescence change versus time) were measured. The following relationships were used to calculate Ki values:
vs/vo=A+((B−A)/1+((IC50/(I)^n))) and […]

T1 sequence (P03951 19-387): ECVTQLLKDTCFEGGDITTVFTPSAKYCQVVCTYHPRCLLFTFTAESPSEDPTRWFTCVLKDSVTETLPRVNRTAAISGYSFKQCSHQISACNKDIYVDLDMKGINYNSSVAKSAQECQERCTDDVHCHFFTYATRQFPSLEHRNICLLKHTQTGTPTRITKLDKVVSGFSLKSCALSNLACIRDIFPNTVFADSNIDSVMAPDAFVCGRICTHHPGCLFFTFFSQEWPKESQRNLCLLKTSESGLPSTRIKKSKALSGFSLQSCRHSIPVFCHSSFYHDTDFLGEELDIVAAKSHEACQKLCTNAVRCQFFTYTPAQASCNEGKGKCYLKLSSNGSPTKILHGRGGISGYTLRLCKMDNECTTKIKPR
T1 sequence (P03951 388-625): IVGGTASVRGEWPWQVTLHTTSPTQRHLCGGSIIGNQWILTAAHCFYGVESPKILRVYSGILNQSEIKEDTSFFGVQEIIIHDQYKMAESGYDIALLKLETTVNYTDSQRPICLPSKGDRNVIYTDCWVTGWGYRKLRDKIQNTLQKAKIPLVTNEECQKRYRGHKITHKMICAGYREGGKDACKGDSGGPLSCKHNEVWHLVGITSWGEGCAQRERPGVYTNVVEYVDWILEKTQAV

Molecule	Ki [nM]
CS(=O)(=O)CC[C@H](NC(=O)/C=C/c1cc(Cl)ccc1-n1cnnn1)C(=O)Nc1ccc(C(=O)O)cc1 [Example 231, (S,E)-4-(2-(3-(5-chloro-2-(1H-tetrazol-1-yl)phenyl)acrylamido)-4-(methylsulfonyl)butanamido)benzoic acid]	44.4
O=C(/C=C/c1cc(Cl)ccc1-n1cnnn1)NC(Cc1cnc2ccccc2n1)C(=O)Nc1ccc(C(=O)O)cc1 (centres unmarked) [Example 251, (E)-4-(2-(3-(5-chloro-2-(1H-tetrazol-1-yl)phenyl)acrylamido)-3-(quinoxalin-2-yl)propanamido)benzoic acid]	16.2
O=C(/C=C/c1cc(Cl)ccc1-n1cnnn1)N[C@@H](CC(=O)NCc1cnccn1)C(=O)Nc1ccc(C(=O)O)cc1 [Example 252, (S,E)-4-(2-(3-(5-chloro-2-(1H-tetrazol-1-yl)phenyl)acrylamido)-4-oxo-4-(pyrazin-2-ylmethylamino)butanamido)benzoic acid]	16.2
N/C(=N/[N+](=O)[O-])NCCC[C@H](NC(=O)/C=C/c1cc(Cl)ccc1-n1cnnn1)C(=O)Nc1ccc(C(=O)O)cc1 [Example 253, 4-((S)-2-((E)-3-(5-chloro-2-(1H-tetrazol-1-yl)phenyl)acrylamido)-5-((Z)-2-nitroguanidino)pentanamido)benzoic acid]	19.3
COC[C@H](NC(=O)/C=C/c1cc(Cl)ccc1-n1cnnn1)C(=O)Nc1ccc(C(=O)O)cc1 [Example 254, (S,E)-4-(2-(3-(5-chloro-2-(1H-tetrazol-1-yl)phenyl)acrylamido)-3-methoxypropanamido)benzoic acid]	3630
O=C(/C=C/c1cc(Cl)ccc1-n1cnnn1)N[C@H](C(=O)Nc1ccc(C(=O)O)cc1)[C@@H]1CCCNC1 [Example 262, 4-((S)-2-((E)-3-(5-chloro-2-(1H-tetrazol-1-yl)phenyl)acrylamido)-2-((R)-piperidin-3-yl)acetamido)benzoic acid]	2330
CC(C)(C)SC[C@H](NC(=O)/C=C/c1cc(Cl)ccc1-n1cnnn1)C(=O)Nc1ccc(C(=O)O)cc1 [Example 282, (R,E)-4-(3-(tert-butylthio)-2-(3-(5-chloro-2-(1H-tetrazol-1-yl)phenyl)acrylamido)propanamido)benzoic acid]	32.5
O=C(/C=C/c1cc(Cl)ccc1-n1cnnn1)N[C@@H](CC(=O)NCCN1CCOCC1)C(=O)Nc1ccc(C(=O)O)cc1 [Example 286, (S,E)-4-(2-(3-(5-chloro-2-(1H-tetrazol-1-yl)phenyl)acrylamido)-4-(2-morpholinoethylamino)-4-oxobutanamido)benzoic acid, Trifluoroacetic acid salt]	481
O=C(N[C@@H](Cc1ccccc1)C(=O)NCCc1cc(Cl)ccc1-n1cnnn1)c1cn2cccnc2n1 [Example 295]	9260
O=C(/C=C/c1cc(Cl)ccc1-n1cnnn1)N[C@@H](CC1CCN(C(=O)c2ccccc2)C1)C(=O)Nc1ccc(C(=O)O)cc1 (stereo partly drawn) [Example 307, 4-((2S)-3-(1-benzoylpyrrolidin-3-yl)-2-((E)-3-(5-chloro-2-(1H-tetrazol-1-yl)phenyl)acrylamido)propanamido)benzoic acid]	12.4

Same assay, conditions: purified human Factor XIa 75-200 pM, substrate S-2366, 50 mM HEPES pH 7.4; read-out: Factor XIa Ki

Molecule	Ki [nM]
O=C(/C=C/c1cc(Cl)ccc1-n1cnnn1)N[C@@H](Cc1c[nH]c2ccccc12)C(=O)Nc1ccc(C(=O)O)cc1 [Example 238, (S,E)-4-(2-(3-(5-chloro-2-(1H-tetrazol-1-yl)phenyl)acrylamido)-3-(1H-indol-3-yl)propanamido)benzoic acid, TFA salt]	4.66
O=C(/C=C/c1cc(Cl)ccc1-n1cnnn1)N[C@@H](Cc1cccs1)C(=O)Nc1ccc(C(=O)O)cc1 [Example 248, (S,E)-4-(2-(3-(5-chloro-2-(1H-tetrazol-1-yl)phenyl)acrylamido)-3-(thiophen-2-yl)propanamido)benzoic acid]	2.41
O=C(/C=C/c1cc(Cl)ccc1-n1cnnn1)N[C@@H](Cc1cccnc1)C(=O)Nc1ccc(C(=O)O)cc1 [Example 249, (S,E)-4-(2-(3-(5-chloro-2-(1H-tetrazol-1-yl)phenyl)acrylamido)-3-(pyridin-3-yl)propanamido)benzoic acid]	6.09
(4-{(S)-2-[(E)-3-(5-chloro-2-tetrazol-1-yl-phenyl)-acryloylamino]-3-phenyl-propionylamino}-cyclohexyl)-carbamic acid methyl ester [Example 11]	4440
